Measurements taken from US7998978B2 (Pfizer Inc., priority 2006, dated 2011).

Molecular target: T1, JNK1α1 (Homo sapiens, UniProt P45983)
T1 construct: catalytic domain containing amino acids 1-364 and N-terminal hexahistidine tag; hexahistidine (His6) (N); made in house; host or cells: E. coli BL21 (DE3)
Experiment: Coupled spectrophotometric (PK/LDH) JNK1α1 assay: % inhibition and Ki determination
Format: biochemical
Details: JNK-1
Summary of the method: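 Initial rates were taken from the absorbance decrease at 340 nm at 30° C. Ki was fitted with a tight-binding model over 11 concentrations (top 100 μM); single-point inhibition was tested at 1 or 10 μM.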

T1 sequence (P45983 1-364): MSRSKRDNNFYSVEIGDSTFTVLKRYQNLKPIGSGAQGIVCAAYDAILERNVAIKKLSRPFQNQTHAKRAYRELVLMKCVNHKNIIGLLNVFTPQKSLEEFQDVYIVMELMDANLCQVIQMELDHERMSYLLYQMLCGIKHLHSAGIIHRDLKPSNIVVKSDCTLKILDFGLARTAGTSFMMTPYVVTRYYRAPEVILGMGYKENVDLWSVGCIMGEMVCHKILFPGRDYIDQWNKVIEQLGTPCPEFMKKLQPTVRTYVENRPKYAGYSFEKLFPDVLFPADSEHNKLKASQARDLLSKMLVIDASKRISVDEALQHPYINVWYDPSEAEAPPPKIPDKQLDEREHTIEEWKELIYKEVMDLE

SMILES | Ki [nM]
O=C(Nc1ccccn1)c1ccc2cnc(N[C@H]3CC[C@H](O)CC3)nc2c1 [Example 330, 2-[(trans-4-hydroxycyclohexyl)amino]-N-pyridin-2-ylquinazoline-7-carboxamide] | 354
CN(C)c1ncccc1NC(=O)c1ccc2cnc(N[C@H]3CC[C@H](O)CC3)nc2c1 [Example 331, N-[2-(dimethylamino)pyridin-3-yl]-2-[(trans-4-hydroxycyclohexyl)amino]quinazoline-7-carboxamide] | 410
CCCC(CO)NC(=O)c1ccc2cnc(N[C@H]3CC[C@H](O)CC3)nc2c1 (stereo partly drawn) [Example 332, 2-[(trans-4-hydroxycyclohexyl)amino]-N-[1-(hydroxymethyl)butyl]quinazoline-7-carboxamide] | 424
CCn1ccnc1CNC(=O)c1ccc2cnc(N[C@H]3CC[C@H](O)CC3)nc2c1 [Example 333, N-[(1-ethyl-1H-imidazol-2-yl)methyl]-2-([trans-4-hydroxycyclohexyl)amino]quinazoline-7-carboxamide] | 455
CC[C@@H](CO)NC(=O)c1ccc2cnc(N[C@H]3CC[C@H](O)CC3)nc2c1 [Example 334, 2-[(trans-4-hydroxycyclohexyl)amino]-N-[(1S)-1-(hydroxymethyl)propyl]quinazoline-7-carboxamide] | 480
CC1(CNC(=O)c2ccc3cnc(N[C@H]4CC[C@H](O)CC4)nc3c2)COC1 [Example 335, 2-[(trans-4-hydroxycyclohexyl)amino]-N-[(3-methyloxetan-3-yl)methyl]quinazoline-7-carboxamide] | 483
O=C(N[C@H]1CC[C@@H](CO)CC1)c1ccc2cnc(N[C@H]3CC[C@H](O)CC3)nc2c1 [Example 336, 2-[(trans-4-hydroxycyclohexyl)amino]-N-[cis-4-(hydroxymethyl)cyclohexyl]quinazoline-7-carboxamide] | 516
O=C(N[C@@H](CO)c1ccccc1)c1ccc2cnc(N[C@H]3CC[C@H](O)CC3)nc2c1 [Example 337, 2-[(trans-4-hydroxycyclohexyl)amino]-N-[(1R)-2-hydroxy-1-phenylethyl]quinazoline-7-carboxamide] | 568
O=C(NCCCO)c1ccc2cnc(N[C@H]3CC[C@H](O)CC3)nc2c1 [Example 338, 2-[(trans-4-hydroxycyclohexyl)amino]-N-(3-hydroxypropyl)quinazoline-7-carboxamide] | 637
O=C(NCCCn1cccn1)c1ccc2cnc(N[C@H]3CC[C@H](O)CC3)nc2c1 [Example 339, 2-[(trans-4-hydroxycyclohexyl)amino]-N-[3-(1H-pyrazol-1-yl)propyl]quinazolin-7-carboxamide] | 801
O=C(NCC1CCCO1)c1ccc2cnc(N[C@H]3CC[C@H](O)CC3)nc2c1 (stereo partly drawn) [Example 340, 2-[(trans-4-hydroxycyclohexyl)amino]-N-(tetrahydrofuran-2-ylmethyl)quinazoline-7-carboxamide] | 836
O=C(NCC1(O)CCC1)c1ccc2cnc(N[C@H]3CC[C@H](O)CC3)nc2c1 [Example 341, N-[(1-hydroxycyclobutyl)methyl]-2-[(trans-4-hydroxycyclohexyl)amino]quinazoline-7-carboxamide] | 836
O=C(NC1CCCCC1O)c1ccc2cnc(N[C@H]3CC[C@H](O)CC3)nc2c1 (stereo partly drawn) [Example 342, N-(2-hydroxycyclohexyl)-2-[(trans-4-hydroxycyclohexyl)amino]quinazoline-7-carboxamide] | 839
O=C(NCCC1CCCCO1)c1ccc2cnc(N[C@H]3CC[C@H](O)CC3)nc2c1 (stereo partly drawn) [Example 343, 2-[(trans-4-hydroxycyclohexyl)amino]-N-[2-(tetrahydro-2H-pyran-2-yl)ethyl]quinazoline-7-carboxamide] | 855
O=C(NC1CCS(=O)(=O)C1)c1ccc2cnc(N[C@H]3CC[C@H](O)CC3)nc2c1 (stereo partly drawn) [Example 344, N-(1,1-dioxidotetrahydro-3-thienyl)-2-[(trans-4-hydroxycyclohexyl)amino]quinazoline-7-7-carboxamide] | 869
O=C(N[C@H]1CC[C@H](CO)CC1)c1ccc2cnc(N[C@H]3CC[C@H](O)CC3)nc2c1 [Example 345, 2-[(trans-4-hydroxycyclohexyl)amino]-N-[trans-4-(hydroxymethyl)cyclohexyl]quinazoline-7-carboxamide] | 885
O=C(NCCO)c1ccc2cnc(N[C@H]3CC[C@H](O)CC3)nc2c1 [Example 346, 2-[(trans-4-hydroxycyclohexyl)amino]-N-(2-hydroxyethyl)quinazoline-7-carboxamide] | 945
O=C(NC1CCOC1)c1ccc2cnc(N[C@H]3CC[C@H](O)CC3)nc2c1 (stereo partly drawn) [Example 347, 2-[(trans-4-hydroxycyclohexyl)amino]-N-(tetrahydrofuran-3-yl)quinazoline-7-carboxamide] | 963
O=C(NCC1CCCCO1)c1ccc2cnc(N[C@H]3CC[C@H](O)CC3)nc2c1 (stereo partly drawn) [Example 348, 2-[(trans-4-hydroxycyclohexyl)amino]-N-(tetrahydro-2H-pyran-2-ylmethyl)quinazoline-7-carboxamide] | 978

SMILES | Ki [nM]
COc1ccc(NC(=O)c2ccc3cnc(N[C@H]4CC[C@H](O)CC4)nc3c2)cn1 [Example 349, 2-[(trans-4-hydroxycyclohexyl)amino]-N-(6-methoxypyridin-3-yl)quinazoline-7-carboxamide] | 1010
O=C(NC[C@H]1C[C@@H]1CO)c1ccc2cnc(N[C@H]3CC[C@H](O)CC3)nc2c1 [Example 350, 2-[(trans-4-hydroxycyclohexyl)amino]-N-{[(1S,2S)-2-(hydroxymethyl)cyclopropyl]methyl} quinazoline-7-carboxamide] | 1040
CC(O)CNC(=O)c1ccc2cnc(N[C@H]3CC[C@H](O)CC3)nc2c1 (stereo partly drawn) [Example 351, 2-[(trans-4-hydroxycyclohexyl)amino]-N-(2-hydroxypropyl)quinazoline-7-carboxamide] | 1060
CC(C)(CO)NC(=O)c1ccc2cnc(N[C@H]3CC[C@H](O)CC3)nc2c1 [Example 352, 2-[(trans-4-hydroxycyclohexyl)amino]-N-(2-hydroxy-1,1-dimethylethyl)quinazoline-7-carboxamide] | 1100
O=C(NC1CCCOC1)c1ccc2cnc(N[C@H]3CC[C@H](O)CC3)nc2c1 (stereo partly drawn) [Example 353, 2-[(trans-4-hydroxycyclohexyl)amino]-N-(tetrahydro-2H-pyran-3-yl)quinazoline-7-carboxamide] | 1170
O=C(NCc1nc2cc(F)ccc2[nH]1)c1ccc2cnc(N[C@H]3CC[C@H](O)CC3)nc2c1 [Example 354, N-[(5-fluoro-1H-benzimidazol-2-yl)methyl]-2-[(trans-4-hydroxycyclohexyl)amino]quinazoline-7-carboxamide] | 1230
Cc1nnc(CNC(=O)c2ccc3cnc(N[C@H]4CC[C@H](O)CC4)nc3c2)o1 [Example 355, 2-[(trans-4-hydroxycyclohexyl)amino]-N-[(5-methyl-1,3,4-oxadiazol-2-yl)methyl]quinazoline-7-carboxamide] | 1390
CCn1cc(CNC(=O)c2ccc3cnc(N[C@H]4CC[C@H](O)CC4)nc3c2)cn1 [Example 356, N-[(1-ethyl-1H-pyrazol-4-yl)methyl]-2-[(trans-4-hydroxycyclohexyl)amino]quinazoline-7-carboxamide] | 1480
Cn1ncc(NC(=O)c2ccc3cnc(N[C@H]4CC[C@H](O)CC4)nc3c2)n1 [Example 358, 2-[(trans-4-hydroxycyclohexyl)amino]-N-(2-methyl-2H-1,2,3-triazol-4-yl)quinazoline-7-carboxamide] | 1700
CC(C)c1ncc(NC(=O)c2ccc3cnc(N[C@H]4CC[C@H](O)CC4)nc3c2)cn1 [Example 359, 2-[(trans-4-hydroxycyclohexyl)amino]-N-(2-isopropylpyrimidin-5-yl)quinazoline-7-carboxamide] | 1720
O=C(NCC1(O)CCOCC1)c1ccc2cnc(N[C@H]3CC[C@H](O)CC3)nc2c1 [Example 360, 2-[(trans-4-hydroxycyclohexyl)amino]-N-[(4-hydroxytetrahydro-2H-pyran-4-yl)methyl]quinazoline-7-carboxamide] | 1730
COc1ccnc(NC(=O)c2ccc3cnc(N[C@H]4CC[C@H](O)CC4)nc3c2)c1 [Example 361, 2-[(trans-4-hydroxycyclohexyl)amino]-N-(4-methoxypyridin-2-yl)quinazoline-7-carboxamide] | 1810
COc1ncccc1NC(=O)c1ccc2cnc(N[C@H]3CC[C@H](O)CC3)nc2c1 [Example 362] | 1810
C[C@H](CO)NC(=O)c1ccc2cnc(N[C@H]3CC[C@H](O)CC3)nc2c1 [Example 363] | 1950
CCOC(=O)N1CC[C@@H](NC(=O)c2ccc3cnc(N[C@H]4CC[C@H](O)CC4)nc3c2)C1 [Example 364, ethyl 3-[({2-[(trans-4-hydroxycyclohexyl)amino]quinazolin-7-yl}carbonyl)amino]pyrrolidine-1-carboxylate] | 1990
CC(=O)N1CCC(NC(=O)c2ccc3cnc(N[C@H]4CC[C@H](O)CC4)nc3c2)CC1 [Example 365, N-(1-acetylpiperidin-4-yl)-2-[(trans-4-hydroxycyclohexyl)amino]quinazoline-7-carboxamide] | 2060
CC(C)(O)c1ccc(CNC(=O)c2ccc3cnc(N[C@H]4CC[C@H](O)CC4)nc3c2)cc1 [Example 366, 2-[(trans-4-hydroxycyclohexyl)amino]-N-[4-(1-hydroxy-1-methylethyl)benzyl]quinazoline-7-carboxamide] | 2170
O=C(NCCN1CCCC1=O)c1ccc2cnc(N[C@H]3CC[C@H](O)CC3)nc2c1 [Example 367, 2-[(trans-4-hydroxycyclohexyl)amino]-N-[2-(2-oxopyrrolidin-1-yl)ethyl]quinazoline-7-carboxamide] | 2180
CN(C)C(=O)CNC(=O)c1ccc2cnc(N[C@H]3CC[C@H](O)CC3)nc2c1 [Example 368, N-[2-(dimethylamino)-2-oxoethyl]-2-[(trans-4-hydroxycyclohexyl)amino]quinazoline-7-carboxamide] | 2290
